Data set [1] deals with leukemia MV-4-11 cell. The data set is described as follows: Cell proliferation assay (CellTiter-Glo), MV-4-11. It is filed as cell-based. As to conditions: Homo sapiens, MV4-11; MV-4-11, 120 hrs, CTG; class symbols; read-out: Compound on MV-4-11 cell IC50. Background: In ATP-based viability assays light output follows the ATP content of the culture.
The nature of data set [2]: In vitro metabolic stability in human liver microsome. It is filed as in vitro ADME. The settings on record: human liver microsomes. As to the method: (§1) 1900 mg MgCl2 was dissolved into a final volume of 400 mL ultra-pure water.
(§2) 17.42 g K2HPO4 and 13.65 g KH2PO4 were dissolved into a final volume of 1000 mL ultra-pure water, respectively. K2HPO4 and KH2PO4 were mixed to prepare 100 mM potassium phosphate (PBS) buffer. The pH value of the final solution was adjusted to pH 7.30±0.10.
(§3) Cold ACN (including 10 ng/mL Labetalol and 10 ng/mL Glibenclamid) was stored at 4° C.
(§4) Working Solution Preparation:
(§5) Verapamil (positive control) and test compound stock solution were diluted into a concentration of 50 μM and 200 μM respectively, using MeOH/ACN/H2O solution (1:1:2, v/v/v).
(§6) 1) 40 μL MgCl2 and 306 μL PBS were added to 96 plate wells (blank, compound wells, compounds without NADPH wells)
(§7) 2) 4 μL compound working solution was added to above wells (blank: 4 μL PBS buffer) (Note: the volume of DMSO in final incubation system ≤0.5%)
(§8) 3) 10 μL microsomes (20 mg/mL) was added in each well. The mixture was warmed up for 10 minutes at 37.0° C.
(§9) 4) 40 μL 10 mM NADPH working solution was added to start reaction. The total volume was 400 μL.
(§10) 5) Aliquots of 50 μL samples were taken from the reaction solution at 0, 5, 15, 45 min. The reaction solutions were stopped by the addition of 400 μL stop solution.
(§11) 6) The sampling plates were shaked for approx. 5 min.
(§12) 7) Samples were centrifuged at 3200 rcf for 10 min. then transferred 50 μL to a new plate dilute with 200 μL H2O for LC/MS/MS analysis.
(§13) Use equation of first order kinetics to calculate t1/2 and CL: […]
(§14) Where k represents elimination constant, which is calculated from a log linear plot of % Remaining versus time. t1/2 represents the half-life. Cprotein is the concentration of liver microsomes.
(In general: Microsomes from liver hold many membrane-bound enzymes, among them those of drug oxidation.)

The subject of data set [3] is lung cancer NCI-H358 cell. The data set is described as follows: Cell proliferation assay (CellTiter-Glo), NCI-H358. The settings on record: Homo sapiens; NCI-H358, 96 hrs, CTG; class symbols; read-out: Compound on NCI-H358 cell IC50. The class given is cell-based. In outline:
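NCI-H358 cells were seeded at 2000 per well on ultra-low-attachment plates and exposed to compound (1000 nM down to 0.1524 nM, threefold steps) for 96 hrs at 37 °C. Viable cells were measured as ATP by CellTiter-Glo luminescence. Inhibition was computed against 0 nM and medium blanks, and IC50 from variable-slope fits.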

The nature of data set [4]: In vitro metabolic stability in rat liver microsome. It is filed as in vitro ADME. As to conditions: rat liver microsomes. On the procedure: as §1, §2, §3, §4, §5, §6, §7, §8, §9, §10, §11, §12, §13, §14

The term IC50 denotes the point on the concentration scale where inhibition reaches its midpoint.

Structures are written as SMILES. Bounds are passed on as bounds.

As for `N[C@@H]1c2ccccc2CC12CCN(c1nc3[nH]nc(C4(c5ccc6c(c5)OCO6)CC4)c3c(=O)[nH]1)CC2` [Example 34, (S)-6-(1-amino-1,3-dihydrospiro[indene-2,4′-piperidin]-1′-yl)-3-(1-(benzo[d][1,3]dioxol-5-yl)cyclopropyl)-1,5-dihydro-4H-pyrazolo[3,4-d]pyrimidin-4-one], the IC50 in data set [1] and in data set [3] was at most 20 nM throughout. Further, the “CLint Human” value in data set [2] was 16.5 μL/min/mg proteins. For the same compound, the “CLint Rat” value in data set [4] was 19.1 μL/min/mg proteins.

As for `N[C@@H]1c2ccccc2CC12CCN(c1nc3[nH]nc(C4(c5ccc(C(F)(F)F)cc5)CC4)c3c(=O)[nH]1)CC2` [Example 228, (S)-6-(1-amino-1,3-dihydrospiro[indene-2,4′-piperidin]-1′-yl)-3-(1-(4-(trifluoromethyl)phenyl)cyclo-propyl)-1,5-dihydro-4H-pyrazolo[3,4-d]pyrimidin-4-one], the IC50 in data set [1] and in data set [3] was 20 to 60 nM throughout. Moreover, in data set [2], the “CLint Human” value was 6.2 μL/min/mg proteins. Moreover, the “CLint Rat” value in data set [4] stood at 12.4 μL/min/mg proteins.

With `N[C@@H]1c2ccccc2CC12CCN(c1nc3[nH]nc(C4(c5csnn5)CC4)c3c(=O)[nH]1)CC2` [Example 240, (S)-3-(1-(1,2,3-thiadiazol-4-yl)cyclopropyl)-6-(1-amino-1,3-dihydrospiro[indene-2,4′-piperidin]-1′-yl)-1,5-dihydro-4H-pyrazolo[3,4-d]pyrimidin-4-one], the IC50 in data set [1] and in data set [3] was at most 20 nM each time. Moreover, the “CLint Human” value in data set [2] came to 11.8 μL/min/mg proteins. For the same compound, in data set [4], the “CLint Rat” value is listed as 15.0 μL/min/mg proteins.
